What was measured:
L. iners HM-702 = test: combined use of K7 bacteriocins and metronidazole, OD 600 nm; format: cell-based, Lactobacillus iners; settings: 48 hours; K7 bacteriocin 80 BU/mL, metronidazole 42 μg/mL
Experimental: (§1) The effectiveness of the combined use of the K7 bacteriocins and metronidazole was tested against L. iners and G. vaginalis in vitro. Cultures of L. iners HM-702 and G. vaginalis HM-133, L. iners+G. vaginalis co-cultures, and L. crispatus SJ-3C were obtained as described previously in Example 1. Overnight cultures of L. iners, G. vaginalis, and L. crispatus were diluted in fresh growth media to concentrations of approximately 10^5 CFU/mL to be tested against K7 bacteriocin (from Example 1), metronidazole (Sigma-Aldrich, USA), and K7 bacteriocin+metronidazole (combined). To each culture of L. iners, G. vaginalis, the L. iners+G. vaginalis co-culture, and L. crispatus was added semi-purified K7 bacteriocin (80 BU/mL, quantified using L. iners as indicator), metronidazole (42 μg/mL), or the K7 bacteriocin+metronidazole combination, and incubated anaerobically at 37° C. for 48 hours. As controls, L. iners, G. vaginalis, the L. iners+G. vaginalis, and L. crispatus were incubated alone with conditioned media for 48 hours as well.

G. vaginalis HM-133 = test: as above; format: cell-based, Gardnerella vaginalis; settings: 48 hours; K7 bacteriocin 80 BU/mL, metronidazole 42 μg/mL
Experimental: as §1

L. crispatus SJ-3C = test: as above; format: cell-based, Lactobacillus crispatus; settings: 48 hours; K7 bacteriocin 80 BU/mL, metronidazole 42 μg/mL
Experimental: as §1

[1] = tested on: Lactobacillus sakei subsp. sakei ATCC 15521; test: critical dilution assay (bacteriocin activity / MIC); format: cell-based; settings: ratio of peptides about 1:1 (w/w)
Lactobacillus iners = test: as above; format: cell-based; settings: for L. iners HM-702 MIC: ratio of peptides about 1:1 (w/w); for anti-L. iners activity of purified chromatography fraction: reverse phase fractions identified by MALDI-TOF; for L. iners HM-702 MIC / MIC against L. iners: L. iners HM-702; for MIC against L. iners: molar value given in brackets

Molecule: Cc1ncc([N+](=O)[O-])n1CCO [metronidazole]
- sensitivity of L. iners (OD 600 nm) (L. iners HM-702): not sensitive
- sensitivity of G. vaginalis (OD 600 nm) (G. vaginalis HM-133): sensitive
- inhibition of L. crispatus SJ-3C (OD 600 nm) (L. crispatus SJ-3C): not significantly inhibited

Molecule: NKWGNAVIGAATGATRGVSWCRGFGPWGMTACGLGGAAIGGYLGYKSN (listed as Lactobacillus paragasseri) [GasK7B β, β peptide of two-component bacteriocin gassericin K7B from L. paragasseri K7]
- L. sakei subsp. sakei ATCC 15521 MIC [1]: 0.025 µg/mL
- L. iners HM-702 MIC (Lactobacillus iners; critical dilution assay): >0.1 µg/mL
- anti-L. iners activity of purified chromatography fraction (Lactobacillus iners): minor peak of activity

Molecule: NNVNWGSVAGSCGKGAVMEIYFGNPILGCANGAATSLVLQTASGIYKNYQKKR (listed as Lactobacillus paragasseri) [GasK7A β, β peptide of two-component bacteriocin gassericin K7A]
- L. sakei subsp. sakei ATCC 15521 MIC [1]: >4 µg/mL
- L. iners HM-702 MIC (Lactobacillus iners; critical dilution assay): >4 µg/mL

Molecule: RNNWAANIGGAGGATVAGWALGNAVCGPACGFVGAHYVPIAWAGVTAATGGFGKIRK (listed as Lactobacillus paragasseri) [GasK7B α, α peptide of two-component bacteriocin gassericin K7B from L. paragasseri K7]
- L. sakei subsp. sakei ATCC 15521 MIC [1]: 0.0016 µg/mL
- L. iners HM-702 MIC (Lactobacillus iners; critical dilution assay): 0.025 µg/mL
- MIC against L. iners (Lactobacillus iners): 5 nM
- activity of peptide expressed as MBP fusion in E. coli (Lactobacillus iners; critical dilution assay, data not shown): comparable to the peptide isolated from K7
- anti-L. iners activity of purified chromatography fraction (Lactobacillus iners): greatest anti-L. iners activity

B1: KNWSVAKCGGTIGTNIAIGAWRGARAGSFFGQPVSVGTGALIGASAGAIGGSVQCVGWLAGGGR (protein, listed as Lactobacillus paragasseri)
chain: KNWSVAKCGGTIGTNIAIGAWRGARAGSFFGQPVSVGTGALIGASAGAIGGSVQCVGWLAGGGR
notes: α peptide of two-component bacteriocin gassericin K7A from L. paragasseri K7
- L. sakei subsp. sakei ATCC 15521 MIC [1]: 0.0094 µg/mL
- L. iners HM-702 MIC (Lactobacillus iners; critical dilution assay): 0.075 µg/mL
- MIC against L. iners (Lactobacillus iners): 12 nM
